Source: BigSolDB 2.1

Cc1ccc(-c2ncc(Cl)cc2-c2ccc(S(C)(=O)=O)cc2)cn1
solubility (mole fraction)
Settings	293.2 K	298.2 K	303.2 K	308.2 K	313.2 K
in 1,4-butanediol	0.0605	0.0723	0.0873	0.104	0.124
in 1,4-dioxane	0.0445	0.073	0.111	0.173	0.265
in DMAc	0.0481	0.0811	0.141	0.236	0.387
in DMF	0.0369	0.069	0.122	0.215	0.374
in DMSO	0.0292	0.0605	0.126	0.253	0.495
in NMP	0.0658	0.108	0.169	0.265	0.411
in ethanol	0.0337	0.0537	0.0807	0.121	0.182
in ethylene glycol	0.113	0.119	0.129	0.139	0.153
in formamide	0.0586	0.113	0.225	0.425	0.779
in glycerin	0.0558	0.0566	0.0577	0.0593	0.0625
in isopropanol	0.0282	0.0452	0.0668	0.1	0.149
in methanol	0.0241	0.0379	0.0561	0.0843	0.125
in n-propanol	0.0505	0.0788	0.111	0.164	0.238
in propylene glycol	0.0472	0.0605	0.0754	0.0942	0.117
in water	1.36e-05	1.58e-05	1.86e-05	2.12e-05	2.44e-05

Settings	solubility (mole fraction)
in PEG-200, 293.2 K	0.116
in PEG-200, 298.2 K	0.135
in PEG-200, 303.2 K	0.156
in PEG-200, 308.2 K	0.176
in PEG-200, 313.2 K	0.201
in PEG-400, 293.2 K	0.211
in PEG-400, 298.2 K	0.238
in PEG-400, 303.2 K	0.275
in PEG-400, 308.2 K	0.311
in PEG-400, 313.2 K	0.351
in PEG-600, 293.2 K	0.329
in PEG-600, 298.2 K	0.354
in PEG-600, 303.2 K	0.389
in PEG-600, 308.2 K	0.422
in PEG-600, 313.2 K	0.456
